Assay results: patent US20230339970A1, “CASEIN KINASE 1 DELTA MODULATORS” (priority 2020, published 2023)

Experiments:
[1] = molecular target: T1, human recombinant GST cleaved CSNK1D (Homo sapiens, UniProt P48730); assay: Purified Enzyme Assay (ADP-Glo CSNK1D Kinase Assay); assay type: biochemical; conditions: 2 nM CSNK1D; peptide substrate 150 μM; ATP 20 μM; 45 minutes at room temperature
T1 construct: GST (cleaved yes); purchased University of Dundee clone DU 19064
In short: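 Percent activity derived from ADP-Glo quantification of ADP produced. Reactions: compound dose-response with human recombinant GST-cleaved CSNK1D, ATP and substrate peptide PLSRTL-pS-VASLPGL, incubated 45 min at room temperature.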

[2] = molecular target: T2, human CSNK1D (Homo sapiens, UniProt P48730); assay: Whole Cell nBRET CSNK1D Binding Assay; conditions: living CHO cells stably expressing human CSNK1D tagged with nanoluciferase; NanoBret tracer 130 nM; 2 hours at 37 C
T2 construct: expressed in transfected cells
T2 sequence (P48730 whole entry): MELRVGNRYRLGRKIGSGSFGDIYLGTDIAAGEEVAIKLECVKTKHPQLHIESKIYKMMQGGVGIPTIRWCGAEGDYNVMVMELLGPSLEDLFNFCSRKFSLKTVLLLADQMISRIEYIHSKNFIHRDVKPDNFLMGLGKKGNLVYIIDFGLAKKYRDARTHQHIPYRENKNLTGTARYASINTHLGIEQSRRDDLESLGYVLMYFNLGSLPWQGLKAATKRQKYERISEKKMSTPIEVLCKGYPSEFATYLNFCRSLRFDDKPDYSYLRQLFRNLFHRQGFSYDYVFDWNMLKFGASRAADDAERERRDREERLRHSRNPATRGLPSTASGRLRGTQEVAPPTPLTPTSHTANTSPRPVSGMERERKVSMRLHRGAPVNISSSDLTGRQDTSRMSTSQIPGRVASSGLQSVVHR

T1 sequence (P48730 whole entry): as above

SMILES	IC50 [1]	IC50 [2]
[2H]C([2H])([2H])C1(C([2H])([2H])[2H])Cn2nc(-c3ccc(F)cn3)c(-c3c(F)c(C)nc4[nH]nc(C)c34)c2CO1 [Example 409, 3-(5-Fluoro-3,6-dimethyl-1H-pyrazolo[3,4-b]pyridin-4-yl)-2-(5-fluoropyridin-2-yl)-6,6-bis(methyl-d3)-6,7-dihydro-4H-pyrazolo[5,1-c][1,4]oxazine]	12 nM	69 nM
CC1(C)Cn2nc(-c3ccc(F)cn3)c(-c3ccnc4cn[nH]c34)c2CO1 [Example 139, 2-(5-Fluoropyridin-2-yl)-6,6-dimethyl-3-(1H-pyrazolo[4,3-b]pyridin-7-yl)-6,7-dihydro-4H-pyrazolo[5,1-c][1,4]oxazine]	450 nM	> 10000 nM
[2H]C([2H])([2H])[C@]1(C(F)(F)F)Cn2nc(-c3ccc(F)cn3)c(-c3ccnc4[nH]ncc34)c2CO1 (single isomer, unassigned) [Example 423, (*R)-2-(5-Fluoropyridin-2-yl)-6-(methyl-d3)-3-(1H-pyrazolo[3,4-b]pyridin-4-yl)-6-(trifluoromethyl)-6,7-dihydro-4H-pyrazolo[5,1-c][1,4]oxazine]	67 nM	1570 nM
C[C@@H]1CCn2nc(-c3ccc(F)cn3)c(-c3ccnc4[nH]ncc34)c2O1 (single isomer, unassigned) [Example 199, (*R)-2-(5-Fluoro-2-pyridyl)-5-methyl-3-(1H-pyrazolo[3,4-b]pyridin-4-yl)-6,7-dihydro-5H-pyrazolo[5,1-b][1,3]oxazine]	12 nM	186 nM
Fc1ccc(-c2nn3c(c2-c2ccnc4[nH]ncc24)[C@@H]2CC[C@H]3C2)nc1 (single isomer, unassigned) [Example 62, (4*R,7*S)-2-(5-Fluoropyridin-2-yl)-3-(1H-pyrazolo[3,4-b]pyridin-4-yl)-4,5,6,7-tetrahydro-4,7-methanopyrazolo[1,5-a]pyridine]	6 nM	55 nM
Cc1cc(-c2c(-c3ccc(F)cn3)nn3c2CC[C@H]3C)c2cn[nH]c2n1 [Example 21, 4-[(6R)-2-(5-Fluoro-2-pyridyl)-6-methyl-5,6-dihydro-4H-pyrrolo[1,2-b]pyrazol-3-yl]-6-methyl-1H-pyrazolo[3,4-b]pyridine]	14 nM	353 nM
Fc1ccc(-c2nn3c(c2-c2c(F)cnc4[nH]ncc24)CC[C@@H]2C[C@@H]23)nc1 (single isomer, unassigned) [Example 343, (5a*R,6a*S)-3-(5-Fluoro-1H-pyrazolo[3,4-b]pyridin-4-yl)-2-(5-fluoropyridin-2-yl)-5,5a,6,6a-tetrahydro-4H-cyclopropa[e]pyrazolo[1,5-a]pyridine]	5 nM	96 nM
Cc1cc(-c2c(-c3ccc(F)cn3)nn3c2O[C@@H](C)C[C@@H]3C)c2cn[nH]c2n1 (single isomer, unassigned) [Example 209, (5*S,7*S)-2-(5-Fluoro-2-pyridyl)-5,7-dimethyl-3-(6-methyl-1H-pyrazolo[3,4-b]pyridin-4-yl)-6,7-dihydro-5H-pyrazolo[5,1-b][1,3]oxazine]	8 nM	165 nM
CC1(C)COc2c(-c3ccnc4cc[nH]c34)c(-c3ccc(F)cn3)nn2C1 [Example 450, 2-(5-Fluoro-2-pyridyl)-6,6-dimethyl-3-(1H-pyrrolo[3,2-b]pyridin-7-yl)-5,7-dihydropyrazolo[5,1-b][1,3]oxazine]	75 nM	1050 nM
CC1(C)Cn2nc(-c3ccc(F)cn3)c(-c3cc(C4CC4)nc4[nH]ncc34)c2CO1 [Example 155, 3-(6-Cyclopropyl-1H-pyrazolo[3,4-b]pyridin-4-yl)-2-(5-fluoropyridin-2-yl)-6,6-dimethyl-6,7-dihydro-4H-pyrazolo[5,1-c][1,4]oxazine]	8 nM	172 nM
COC1(C)COCc2c(-c3ccnc4[nH]ncc34)c(-c3ccc(F)cn3)nn2C1 (single isomer, unassigned) [Example 486, (*R)-2-(5-Fluoropyridin-2-yl)-7-methoxy-7-methyl-3-(1H-pyrazolo[3,4-b]pyridin-4-yl)-7,8-dihydro-4H,6H-pyrazolo[5,1-c][1,4]oxazepine]	763 nM	> 10000 nM
Fc1ccc(-c2nn3c(c2-c2ccnc4[nH]ncc24)CO[C@H](C2CCC2)C3)nc1 (single isomer, unassigned) [Example 110, (*R)-6-Cyclobutyl-2-(5-fluoropyridin-2-yl)-3-(1H-pyrazolo[3,4-b]pyridin-4-yl)-6,7-dihydro-4H-pyrazolo[5,1-c][1,4]oxazine]	49 nM	1170 nM
Fc1ccc(-c2nn3c(c2-c2ccnc4[nH]ncc24)[C@H]2CC[C@@H]3C2)cc1 (single isomer, unassigned) [Example 61]	5 nM	21 nM
Fc1ccc(-c2nn3c(c2-c2cc(C(F)F)nc4[nH]ncc24)CCC3)nc1 [Example 222, 6-(Difluoromethyl)-4-[2-(5-fluoro-2-pyridyl)-5,6-dihydro-4H-pyrrolo[1,2-b]pyrazol-3-yl]-1H-pyrazolo[3,4-b]pyridine]	11 nM	181 nM
Cc1cc(-c2c(-c3ccc(F)cc3)nn3c2CC(F)(F)CC3)c2cn[nH]c2n1 [Example 47, 4-(5,5-Difluoro-2-(4-fluorophenyl)-4,5,6,7-tetrahydropyrazolo[1,5-a]pyridin-3-yl)-6-methyl-1H-pyrazolo[3,4-b]pyridine]	11 nM	79 nM
C[C@H]1n2nc(-c3ccc(F)cn3)c(-c3ccnc4[nH]ncc34)c2COC1(C)C (single isomer, unassigned) [Example 173, (*R)-2-(5-Fluoropyridin-2-yl)-6,6,7-trimethyl-3-(1H-pyrazolo[3,4-b]pyridin-4-yl)-6,7-dihydro-4H-pyrazolo[5,1-c][1,4]oxazine]	42 nM	840 nM
COCC1(F)CCc2c(-c3c(F)cnc4[nH]ncc34)c(-c3ccc(F)cn3)nn2C1 (single isomer, unassigned) [Example 302, (*S)-5-Fluoro-4-[6-fluoro-2-(5-fluoro-2-pyridyl)-6-(methoxymethyl)-5,7-dihydro-4H-pyrazolo[1,5-a]pyridin-3-yl]-1H-pyrazolo[3,4-b]pyridine]	132 nM	3250 nM
Cc1cc(-c2c(-c3ccc(Cl)c(F)c3)nn3c2COCC3)c2cn[nH]c2n1 [Example 73, 2-(4-Chloro-3-fluoro-phenyl)-3-(6-methyl-1H-pyrazolo[3,4-b]pyridin-4-yl)-6,7-dihydro-4H-pyrazolo[5,1-c][1,4]oxazine]	120 nM	569 nM

Stronger by IC50 [1], values ahead:

IC50 [1]	IC50 [2]	SMILES
< 0.5 nM	5 nM	CC1COc2c(-c3ccnc4[nH]ncc34)c(-c3ccc(F)cc3)nn2C1 (stereo not shown) [Example 191, (R S)-2-(4-Fluorophenyl)-6-methyl-3-(1H-pyrazolo[3,4-b]pyridin-4-yl)-6,7-dihydro-5H-pyrazolo[5,1-b][1,3]oxazine]
4 nM	19 nM	[2H]C([2H])([2H])[C@@]1(C(F)(F)F)Cn2nc(-c3ccc(F)cn3)c(-c3ccnc4[nH]nc(Cl)c34)c2CO1 (single isomer, unassigned) [Example 427, (*S)-3-(3-Chloro-1H-pyrazolo[3,4-b]pyridin-4-yl)-2-(5-fluoropyridin-2-yl)-6-(methyl-d3)-6-(trifluoromethyl)-6,7-dihydro-4H-pyrazolo[5,1-c][1,4]oxazine]
4 nM	20 nM	Cc1nc2[nH]ncc2c(-c2c(-c3ccc(F)cn3)nn3c2CC2(C3)CC2(F)F)c1F (single isomer, unassigned) [Example 264, (*S)-1′.1′-Difluoro-3-(5-fluoro-6-methyl-1H-pyrazolo[3,4-b]pyridin-4-yl)-2-(5-fluoro-2-pyridyl)spiro[4,6-dihydropyrrolo[1,2-b]pyrazole-5,2′-cyclopropane]]
4 nM	30 nM	[2H]C([2H])([2H])C1(C([2H])([2H])[2H])Cn2nc(-c3ccc(F)cn3)c(-c3ccnc4[nH]nc(Cl)c34)c2CO1 [Example 400, 3-(3-Chloro-1H-pyrazolo[3,4-b]pyridin-4-yl)-2-(5-fluoropyridin-2-yl)-6,6-bis(methyl-d3)-6,7-dihydro-4H-pyrazolo[5,1-c][1,4]oxazine]
3 nM	20 nM	Cc1nc(-c2c(-c3ccc(F)cc3)nn3c2COC(C)(C(F)(F)F)C3)c2cn[nH]c2n1 (stereo not shown) [Example 422, 2-(4-Fluorophenyl)-6-methyl-3-(6-methyl-1H-pyrazolo[3,4-d]pyrimidin-4-yl)-6-(trifluoromethyl)-6,7-dihydro-4H-pyrazolo[5,1-c][1,4]oxazine]
3 nM	40 nM	COCCC1(C)CCc2c(-c3ccnc4[nH]ncc34)c(-c3ccc(F)cn3)nn2C1 (single isomer, unassigned) [Example 318, (*S)-4-[2-(5-Fluoro-2-pyridyl)-6-(2-methoxyethyl)-6-methyl-5,7-dihydro-4H-pyrazolo[1,5-a]pyridin-3-yl]-1H-pyrazolo[3,4-b]pyridine]
1 nM	3 nM	CC(=O)Nc1cc(-c2c(-c3ccc(F)cc3)nn3c2CCC2C3C2(F)F)ccn1 (racemic) [Example 348, N-(4-(6,6-Difluoro-2-(4-fluorophenyl)-5,5a,6,6a-tetrahydro-4H-cyclopropa[e]pyrazolo[1,5-a]pyridin-3-yl)pyridin-2-yl)acetamide]
1 nM	28 nM	CC(=O)Nc1cc(-c2c(-c3ccc(F)cc3)nn3c2OCCCC3)ccn1 [Example 215, N-(4-(2-(4-Fluorophenyl)-5,6,7,8-tetrahydropyrazolo[5,1-b][1,3]oxazepin-3-yl)pyridin-2-yl)acetamide]
